In patent US20190381127A1, “COMBINATION THERAPY WITH A6, CHEMOTHERAPEUTIC AGENTS, RADIATION THERAPY, OR A COMBINATION THEREOF FOR THE TREATMENT OF CANCER” (Splash Pharmaceuticals, Inc., priority 2016, published 2019):

Columns and labels:
[1] = system: choroidal neovascularization; test: Laser-induced choroidal neovascularization (CNV); assay type: in vivo, primate; details: intravitreal administration; relative to control
[2] = system: CD44-positive SKOV3 cells; test: Boyden chamber migration; assay type: cell-based, human; details: compared to untreated control
[3] = system: CD44-expressing SKOV3 cells; test: Cell binding to HA coated plates; assay type: cell-based, human
From the text: (§1) A6 shares sequence homology with the Link Module of CD44. […] This effect was blocked with the anti-CD44 antibody, IM7. […] Without being bound by any particular A6 can induce conformational changes in CD44, resulting in either a lowered affinity of the epitope for DF1485, or preventing DF1485 from binding CD44. The binding of A6 to CD44 results in a modulation of CD44-mediated intracellular signaling and establishes a functional relationship between A6 and CD44 in CD44 expressing cells.

[4] = system: endometrial cancer with metastases to lymph nodes and lungs; test: Compassionate use, endometrial cancer patient; assay type: in vivo, human
Description: A second compassionate use patient was administered A6. The patient was diagnosed with endometrial cancer with metastases to lymph nodes and lungs. The patient underwent a hysterectomy followed by cisplatin and paclitaxel regimen. The patient started A6 1.5 mg/kg/day and continued on this regimen for 2 years with intermittent radiation therapy to the mediastinum to a total dose of 5,000 cGy. […] A6 increased to 2.0 mg/kg/day.

[5] = Clinical safety profile of A6 (summary); details: human, in vivo
[6] = system: FAK phosphorylation in CD44-positive SKOV3 cells; test: FAK phosphorylation signaling study; assay type: cell-based, human
Description: Human ovarian SKOV3 cells were bound and cross-linked to A6. […] To determine if this binding influenced CD44-mediated activity, and to determine if a functional relationship existed between A6 and CD44, intracellular signaling studies were conducted.

[7] = system: choroidal neovascularization; test: Laser-induced choroidal neovascularization (CNV); assay type: in vivo, mouse; details: compared to the non-treated control group
[8] = system: B16F10-DsRed cells; test: B16F10-DsRed Cell Lung Metastasis Model; assay type: in vivo, C57BL/6 mice; details: for tumor burden in the lungs: A6 200 mg/Kg SC QD, day 12
Description: B16F10-DsRed cells were harvested from cells culture. 1×10^6 cells/200 μl were inoculated into DPBS/mouse via bilateral tail vein in 48 female C57BL/6 mice (Charles River).
Mice were randomized into six groups: Grp1 no treatment, Grp2 PTX (10 mg/Kg, IP on days 1 and 8), Grp3 DDP (4 mg/Kg, IP, day 1, 4 and 8), Grp4 A6 (200 mg/Kg, SC, QD), Grp5 A6 plus PTX, Grp6 A6 plus DDP. Animals were weighed before dosing and then twice a week.
Dosing: A6 dosing started immediately after cell inoculation and consecutively for 11 days; DDP/PTX dosing started immediately after inoculation and then on days as above. The study was ended on day 12, and the lungs were harvested to determine metastatic burden.

[9] = system: human CLL B-cell lymphocytes; test: CLL B-cell lymphocytes in vitro
[10] = human, in vivo
[11] = system: CD44-nonexpressing A278 cells; test: Cell binding to HA coated plates; assay type: cell-based
From the text: as §1

[12] = system: B16-F10 melanoma cells; test: B16-F10 lung metastatic model; assay type: in vivo, C57BL/6 mice; details: tail vein injection; lungs evaluated at day 11
Description: Melanoma: The well characterized B16-F 10 lung metastatic model was employed to determine the ability of A6 to inhibit the colonization of secondary tissues by circulating cancer cells. […] Melanoma cells were injected into the tail veins of C57BL/6 mice to simulate a burden of metastasizing cells and the lungs were then evaluated for lesions at day 11.

[13] = system: A2780/CP cells; test: CCK-8 cytotoxicity, A6 plus DDP; assay type: cell-based, human; details: A6 1, 10 or 100 μM 1 h, then 1 h A6 plus DDP; 10% FBS
Description: Study Conditions. Drugs: […] Drug exposure time: 1 hour; Cell line: […] Media: RPMI 1640 plus 10% FBS containing 1 mM penicillin/streptomycin; Cytotoxicity Assays: CCK-8 (Cell Counting Kit 8-Dojindo Molecular Technologies). Tissue culture plates containing 96-well plates were seeded with 4000 cells in 100 μl of media per well. The wells on rows A-[…] cells, while the wells on rows E-[…]/CP cells. […] After 1 h, increasing concentrations of DDP were added to triplicate wells in 100 μl medium. […] The cells were then allowed to grow for 96 h following which the plates were assayed for relative cell growth with the CCK-8 assay. CCK-8 assay. Five μl of CCK-8 stain was added to each well and the plate was incubated at 37° C. incubator for 4 h. The plate was read with a microplate reader at a wavelength of 450 nm. (See FIGS. 5A-5D and FIG. 6). The assay was performed using triplicate wells for each DDP concentration. The data in the tables below is the optical density in the well which is a function of the number of live cells remaining at the end of the 96 h growth period.

[14] = system: ovarian cancer
Description: Asymptomatic Progression of Ovarian Cancer: A randomized, double-blind, placebo-controlled Phase 2 clinical trial evaluating A6 in women with asymptomatic CA-125 progression of ovarian cancer (“marker-only relapse” or MOR) was conducted. […] Because patients were clinically asymptomatic at the time of entry, the study was able to be placebo-controlled. The primary endpoints were time to clinical progression of disease and safety of A6. The secondary endpoints included changes in serum CA125. This study enrolled 24 patients: 12 were randomized to daily self-administration of A6 at two doses, and 12 to matching placebo injections. Both groups were followed for up to 9 months.

[15] = system: HEY (DDP sensitive) cells; test: CCK-8 cytotoxicity of DDP/PTX with or without A6; assay type: cell-based; details: 100 μM A6; 72 hours; 10% FBS
Description: Effect of A6 plus Cisplatin (DDP) or Paclitaxel (PTX) in HEY (DDP sensitive) and HEY/C2 (DDP resistant) cells was tested. The cells were plated in 96-well plates as described and incubated overnight. The cells were treating with various doses of DDP/PTX in the absence or presence of 100 μM A6 in culture medium containing 10% FBS and incubated for 72 hours. The CCK-8 assay described herein was performed to access cytotoxicity of DDP/PTX.

[16] = system: CD44-negative A2780 cells; test: Boyden chamber migration; assay type: cell-based, human

Substance: Ac-KPSSPPEE-NH2 [A6, Ac-KPSSPPEE-NH2]
- reduction in CNV [1]: 71%
- inhibition of migration [2]: > 85%
- binding of cells to HA coated plates [3]: increase the binding
- clinical outcome ([4]; 10+ years of biannual testing): no evidence of disease
- disease status ([4]; A6 1.5 mg/kg/day for 2 years with intermittent radiation therapy): Stable disease
- CA-125 ([4]; after A6 dose reduced to 0.25-0.5 mg/kg/day, increased from 25): 71 U/ml
- CA-125 ([4]; after A6 increased to 2.0 mg/kg/day): 22 U/ml
- CA-125, subsequent follow up ([4]; subsequent follow up): below 25 U/ml
- safety profile [5]: no immunogenicity, no dose-limiting toxicities, no serious side-effects
- FAK phosphorylation [6]: modulate FAK phosphorylation
- inhibition of new vessel formation [7]: 95%
- tumor burden in the lungs ([8]; in the presence or absence of cisplatin): not significantly reduced
- tumor burden in the lungs ([8]; in the presence or absence of paclitaxel, 200 mg/kg): not significantly reduce
- antimetastatic activity of cisplatin or paclitaxel on addition of A6 ([8]; mouse, in vivo): did not increase antimetastatic activity
- cytotoxicity in vitro [9]: direct, dose-dependent, cytotoxicity
- expression of CD44 and ZAP-70 [9]: down modulates
- half-life [10]: 1.8 to 2 h
- binding of cells to HA coated plates [11]: neither A6 nor IM7 had any effect
- number of lung metastases, % of control [12]: 50%
- modulation of sensitivity to DDP [13]: failed to modulate the sensitivity
- CA125 response ([14]; in vivo): not associated with CA125 response
- complete responses ([14]; in vivo): no complete responses
- patients achieving stable disease ([14]; in vivo): 36%
- safety profile ([14]; in vivo): comparable to that of control (placebo) treatment
- median progression free survival (PFS) ([14]; placebo 49 days): 100 days
- sensitivity of cells to cisplatin [15]: did not affect sensitivity
- sensitivity of cells to paclitaxel [15]: did not affect sensitivity
- adverse events (human, in vivo): no systemic drug-related adverse events
- cumulative increase in concentration over time (human, in vivo): no cumulative increase in concentration over time was detected
- anti-A6 antibody production (subcutaneous twice daily for 6 days, day 14): no anti-A6 antibody production was detected
- effect on migration [16]: no effect
